Results from PubChem BioAssay (NCI).
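The compound was tested at five concentrations on cells cultured in 96-well plates, with a 48-hour exposure period. Here, GI50 denotes the concentration required for 50% inhibition of growth. TGI denotes the concentration required for complete inhibition of growth.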

Legend:
Experiment in all cases: NCI tumour cell line growth inhibition, 48 h
[1] = system: NCI/ADR-RES ovarian
[2] = system: CAKI-1 renal
[3] = system: OVCAR-5 ovarian
[4] = system: M14 melanoma
[5] = system: ACHN renal
[6] = system: U251 CNS
[7] = system: A549 NSCLC

SMILES	TGI [1] [µM]	TGI [2] [µM]	TGI [3] [µM]	TGI [4] [µM]	TGI [5] [µM]	TGI [6] [µM]	TGI [7] [µM]	GI50 [1] [µM]	GI50 [2] [µM]	GI50 [3] [µM]	GI50 [4] [µM]	GI50 [7] [µM]	GI50 [6] [µM]	GI50 [5] [µM]
Cc1ccc(NC(=O)C(=O)CC(=O)c2sc(Nc3c(C)cccc3C)nc2C)cc1C	> 100	> 100	> 100	> 100	> 100	> 100	> 100	–	–	–	–	–	–	–
CN(C)/N=C1\CC(c2ccccc2)C(C#N)(C#N)C1(C#N)C#N (configuration not stated)	72.1	21.9	59.1	34.3	34.8	> 100	> 100	–	–	–	–	–	–	–
C[C@H](C/C=C/C(C)(C)O)[C@H]1CC[C@@]2(C)[C@@H]3CC[C@H]4C(C)(C)[C@@H](O)CC[C@@]45C[C@@]35CC[C@]12C	19.4	–	38.8	44.5	18.9	53.8	31	–	–	–	–	–	–	–
O=C1Nc2ccccc2/C1=c1\[nH]c(=O)/c(=C\c2ccc(OCc3ccccc3)cn2)[nH]c1=O	> 100	> 100	> 100	> 100	> 100	44.8	> 100	–	–	–	–	–	–	–
N#C/C(=C/NC(=S)c1ccncc1)C(N)=O	> 100	> 100	> 100	> 100	> 100	> 100	> 100	–	–	–	–	–	–	–
C[N+]1(CCN[N+]2(C)CCCCC2)CCc2ccccc2C1 (configuration not stated)	> 100	> 100	> 100	> 100	> 100	> 100	> 100	–	–	–	–	–	–	–
O=C(CCc1ccccc1)ON1C(=S)C(c2ccccc2)(c2ccccc2)N=C1Sc1ccccc1	> 100	> 100	> 100	> 100	> 100	–	> 100	–	–	–	–	–	–	–
CCN(CC)c1ccc(/C=C/C=C2C(=O)NC(=S)NC2=O)cc1	41.8	> 100	> 100	> 100	> 100	> 80.8	> 100	–	–	–	–	–	–	–
CN(C)c1cccc(NC2=NCCO2)c1	> 100	> 100	> 100	> 100	> 100	> 100	> 100	–	–	–	–	–	–	–
Fc1cccc(F)c1C1SCc2nc3ccc(Cl)cc3n21 (configuration not stated)	> 100	> 100	> 100	> 100	> 100	> 100	> 100	–	–	–	–	–	–	–
CCOC(=O)C1=COC(C)(CCc2ccccc2)CC1=O (configuration not stated)	> 100	> 100	> 100	> 100	> 100	> 100	> 100	–	–	–	–	–	–	–
Cn1c(N/N=C/c2ccccc2)nc(-c2ccc([N+](=O)[O-])cc2)c(C#N)c1=O	> 100	> 100	> 100	> 100	> 100	> 100	> 100	–	–	–	–	–	–	–
COc1ccc(-n2sc3ncccc3c2=O)cc1	59.6	–	64.2	41.3	34.5	44.6	> 100	–	–	–	–	–	–	–
NNC(=O)c1cc(=O)[nH][nH]1	> 100	> 100	> 100	> 100	> 100	> 100	> 100	–	–	–	–	–	–	–
COc1cc(C2c3cc4c(cc3OC(NCCO)C2C)OCO4)cc(OC)c1OC (configuration not stated)	> 100	> 54.3	> 100	> 45	> 91.5	12.5	> 100	–	–	–	–	–	–	–
C(=C\N1CCCCC1)/c1nnnn1-c1ccccc1	64.5	38.2	> 100	38.5	> 100	80.3	> 100	–	–	–	–	–	–	–
CN(C)c1cc[n+](-c2nc(/N=C(\[O-])C(F)(F)F)nc3c2ncn3C2CC(O)C(CO)O2)cc1 (configuration not stated)	> 100	–	> 100	> 100	> 100	> 100	> 100	–	–	–	–	–	–	–
NC(Cc1ccc(S(=O)(=O)O)cc1)C(=O)NC(Cc1ccc(S(=O)(=O)O)cc1)C(=O)O (configuration not stated)	> 100	> 100	> 100	> 100	> 100	> 100	> 100	–	–	–	–	–	–	–
CC1C(c2ccc(Cl)cc2)c2cc3c(cc2OC1N1CCOCC1)OCO3 (configuration not stated)	> 100	71.5	> 100	> 100	> 100	–	> 100	–	–	–	–	–	–	–

SMILES	TGI [1] [µM]	TGI [2] [µM]	TGI [3] [µM]	TGI [4] [µM]	TGI [5] [µM]	TGI [6] [µM]	TGI [7] [µM]	GI50 [1] [µM]	GI50 [2] [µM]	GI50 [3] [µM]	GI50 [4] [µM]	GI50 [7] [µM]	GI50 [6] [µM]	GI50 [5] [µM]
CC(=O)N(O)c1ccc(-c2nc3ccccc3s2)cc1	> 100	> 100	> 100	> 100	> 100	> 100	> 100	–	–	–	–	–	–	–
O=[N+]([O-])c1ccc(O)c(/C=N/NC(=S)N2CCCCC2)c1	3.85	34.4	> 100	> 100	6.97	90.3	> 100	–	–	–	–	–	–	–
C=CCOCn1cc(C)c(=O)[nH]c1=O	–	> 100	–	> 100	> 100	–	> 100	–	–	–	–	–	–	–
CC1CC(=O)N(N(C)C)C(C#N)(C#N)C1(C#N)C#N (configuration not stated)	55	5.23	51.8	42.9	29.3	42.4	> 74.2	–	–	–	–	–	–	–
CCOC(=O)Cc1nc2c(N)ncnc2n1C1OC(COC(C)=O)C(OC(C)=O)C1OC(C)=O (configuration not stated)	> 100	> 100	–	> 100	> 100	> 100	> 100	–	–	–	–	–	–	–
C[C@H]1S[C@H](c2c(Cl)cccc2Cl)N2Cc3ccccc3N=C12	–	> 100	37.5	32.4	26.5	> 100	40.3	–	–	–	–	–	–	–
COC(OC)[C@@H]1OC[C@@H](O)[C@@H]1n1cnc2c(N)ncnc21	> 100	> 100	> 100	> 100	> 100	> 100	–	–	–	–	–	–	–	–
CCOC(=O)C1=C(C)N(c2ccc(OC)cc2)C2(O)C=CC(=O)C3=C(O)c4ccccc4C(=O)C312 (configuration not stated)	20.1	26.5	33.4	21.8	39.3	23.5	36.2	–	–	–	–	–	–	–
O=C(CCc1ccccc1)On1c(-c2ccccc2)nc2ccccc2c1=S	79.1	> 100	50.5	44.7	> 100	> 100	> 100	–	–	–	–	–	–	–
CC(=O)N1CCn2c1nc1cc(Cl)ccc12	> 100	> 100	> 100	> 100	> 100	> 100	> 100	–	–	–	–	–	–	–
O=C(NC(=S)NC(=O)c1cc(O)c(O)c(O)c1)c1cc(O)c(O)c(O)c1	70.4	44.3	78.8	98.6	44.9	84.9	> 100	–	–	–	–	–	–	–
COc1cc(C2c3cc4c(cc3OC(N3CCNCC3)C2C)OCO4)cc(OC)c1OC (configuration not stated)	–	4.29	> 100	20	48.7	> 43.8	> 53.9	–	–	–	–	–	–	–
O=C(Nc1ccccc1)c1cc(S(=O)(=O)N2CCNNC2=O)c(S)cc1Cl	> 100	> 100	> 100	> 100	> 100	> 100	> 100	–	–	–	–	–	–	–
COc1ccc(/C=C/C2=NN(c3cccc(S(=O)(=O)O)c3)C3(C2)SCC(=O)N3c2nc3ccccc3s2)cc1 (configuration not stated)	> 100	> 100	> 100	> 100	> 100	> 100	> 100	–	–	–	–	–	–	–
Cc1nc2c(=S)n(C)ncc2[nH]1	> 100	> 100	> 100	> 100	> 100	> 100	> 100	–	–	–	–	–	–	–
CC(=N\N)/C(C)=N/N=C(C)/C(C)=N/N=C(C)/C(C)=N/N	> 100	> 100	> 100	> 100	> 100	> 100	> 100	–	–	–	–	–	–	–
O=C(OCC(Cl)(Cl)Cl)O[C@@H]1CCCC1(c1ccccc1)c1ccccc1	> 100	> 100	> 100	> 100	> 100	> 100	> 100	–	–	–	–	–	–	–
COc1ccc(C(OCC2OC(n3ccc(NC(=O)c4ccccc4)nc3=O)CC2OP2(=S)SCCS2)(c2ccccc2)c2ccc(OC)cc2)cc1 (configuration not stated)	> 10	–	94.6	66.2	61.5	86.5	> 100	–	–	–	–	–	–	–
Cc1ccccc1NC(=O)Cc1csc2[n+]1C(=O)/C(=C/c1ccc([N+](=O)[O-])cc1)S2	> 100	61.8	> 100	> 100	> 100	> 100	> 100	–	–	–	–	–	–	–

SMILES	TGI [1] [µM]	TGI [2] [µM]	TGI [3] [µM]	TGI [4] [µM]	TGI [5] [µM]	TGI [6] [µM]	TGI [7] [µM]	GI50 [1] [µM]	GI50 [2] [µM]	GI50 [3] [µM]	GI50 [4] [µM]	GI50 [7] [µM]	GI50 [6] [µM]	GI50 [5] [µM]
N#C[C@H](c1nc2ccccc2s1)c1nc2ccccc2nc1Cl	> 100	> 100	39	34.1	29.8	> 100	> 100	–	–	–	–	–	–	–
CCOC(=O)Oc1ccc2c(c1)c(=O)c1c(NCCN(CC)CC)ccc3nnn2c31	18.9	2.63	22.7	19.1	11.6	17	12.4	–	–	–	–	–	–	–
CC1=NC(=Cc2ccc([N+](=O)[O-])cc2)C(=O)N1n1c(-c2ccccc2)nc2ccccc2c1=O	–	> 100	–	> 100	–	–	> 100	–	–	–	–	–	–	–
CC(C)(C)N(Cc1ccc2c(c1)OCO2)C(=O)/C=C\Sc1ccccc1	> 100	> 100	> 100	> 100	> 100	> 100	> 100	–	–	–	–	–	–	–
COc1ccc2c(OCc3nnc4ccc(-c5ccccc5)nn34)ccnc2c1	> 100	> 100	> 100	> 100	–	–	> 100	> 100	> 100	> 100	> 100	> 100	–	–
CNc1ncc(-c2nnnn2-c2ccccc2)c(CN(C)C)n1	> 100	> 100	> 100	> 100	> 100	> 100	> 100	–	–	–	–	–	–	–
COC(=O)c1ccc(Nc2nc3nc[nH]c3c(=O)[nH]2)cc1	> 100	> 100	> 100	> 100	> 100	> 100	> 100	–	–	–	–	–	–	–
Cc1nc2ccccc2c(/C=C/c2ccc(Cl)cc2)c1C(=O)/C=C/c1ccc(Cl)cc1	6.15	–	–	–	–	3.03	–	2.12	–	–	–	–	1.39	–
Oc1[nH]c2ccccc2c1/C=c1/cc2c(c(-c3ccc(F)cc3)n1)=Nc1ccccc1-2	1.25	5.05	4.39	1.41	2.54	2.17	2.28	0.267	1.29	1.36	0.315	0.815	0.94	1.12
O=C(NNc1nc(-c2ccccc2)cs1)C(F)(F)F	> 100	> 100	> 100	> 100	> 100	98.7	> 100	–	–	–	–	–	–	–
S=C(Nc1ccc2cn[nH]c2c1)Nc1ccc2cn[nH]c2c1	> 100	> 100	> 100	> 100	> 100	> 100	> 100	–	–	–	–	–	–	–
COc1ccc(C(C2=C(O)COC2=O)c2cc3c(cc2O)OCO3)cc1OC (configuration not stated)	> 100	> 100	> 100	> 100	> 100	–	> 100	–	–	–	–	–	–	–
COc1ccccc1C[C@@H]1OC2(C=CC(=O)C=C2)O[C@H]1Cc1ccccc1OC	18.4	29.7	16.5	17.5	17.7	19.4	> 50	–	–	–	–	–	–	–
COc1ccc(/C=N/n2cnc3[nH]c(C)c(Cc4ccccc4)c3c2=N)cc1	> 100	> 100	> 100	> 100	> 100	> 100	> 100	–	–	–	–	–	–	–
Clc1ccc(OCc2nn3c(CCc4nnc5sc(COc6ccc(Cl)cc6)nn45)nnc3s2)cc1	37.5	12.8	> 100	> 100	41	54.6	–	–	–	–	–	–	–	–
CSc1c(C(=O)Nc2ccc(Cl)cc2)c(N)n(N)c(=O)c1C#N	> 100	> 100	> 100	> 100	–	> 100	> 100	–	–	–	–	–	–	–
CCOc1cc(NC(C)=O)ccc1C(=O)NN1C(=O)CSC1c1ccccc1 (configuration not stated)	> 100	> 100	> 100	> 100	> 100	–	> 100	–	–	–	–	–	–	–
CC(C)C1N(C)c2ccc(Cl)cc2[C@H]2c3ccccc3CCN12 (some centres not stated)	> 100	–	> 100	> 100	> 100	> 100	> 100	–	–	–	–	–	–	–
